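A five-concentration, 48-hour dose response in 96-well plates underlies each endpoint, interpolated linearly between surrounding concentrations. Abbreviation: GI50, concentration required for 50% inhibition of growth. TGI marks complete inhibition of growth.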
How the values were obtained:
Assay in all cases: NCI anticancer screen, dose series, 48 h
[1] = test system: BT-549 breast
[2] = test system: RXF 393 renal
[3] = test system: SF-268 CNS
[4] = test system: OVCAR-3 ovarian
[5] = test system: HL-60(TB) leukemia
[6] = test system: NCI-H226 lung
[7] = test system: SK-MEL-5 melanoma
[8] = test system: HCC-2998 colon
[9] = test system: LOX IMVI melanoma
[10] = test system: PC-3 prostate

Row | SMILES | GI50 [1] [µM] | GI50 [2] [µM] | GI50 [3] [µM] | GI50 [4] [µM] | GI50 [5] [µM] | GI50 [6] [µM] | GI50 [7] [µM] | TGI [2] [µM] | TGI [3] [µM] | TGI [8] [µM] | TGI [6] [µM] | TGI [7] [µM] | TGI [4] [µM] | TGI [5] [µM] | TGI [9] [µM] | GI50 [10] [µM] | TGI [10] [µM] | TGI [1] [µM] | GI50 [8] [µM] | GI50 [9] [µM]
1 | C=C1CC(COc2cc(Cl)nc(N)n2)C1 | 20.6 | 36.8 | 70.4 | 28.6 | 35.1 | 42.5 | 44.4 | – | – | – | – | – | – | – | – | – | – | – | – | –
2 | COC(=O)/C(=N\NC(=S)NN)C(C(=O)C(=O)Nc1ccccc1C(N)=O)c1nc2ccccc2[nH]c1=O (centres undefined) | – | – | – | – | – | – | – | > 100 | > 100 | > 100 | > 100 | > 100 | – | – | – | – | – | – | – | –
3 | N#CC(C#N)=Cc1cccc(Oc2ccccc2)c1 | – | – | – | – | – | – | – | 33.4 | 40.6 | > 62.8 | > 69.1 | 36.6 | 72 | 47.3 | 43.6 | – | – | – | – | –
4 | O=C1N[C@@H](O)[C@@H]2ON=C(c3ccccc3)[C@H]12 | – | – | – | – | – | – | – | > 100 | > 100 | > 100 | > 100 | > 100 | > 100 | > 100 | > 100 | – | – | – | – | –
5 | C=C(C)[C@@H]1CC[C@@]2(C(=O)O)CC[C@]3(C)C(CCC4[C@@]5(C)CCC(OS(=O)(=O)c6ccccc6)C(C)(C)C5CC[C@]43C)C12 (some centres undefined) | 3.17 | 13.8 | 13.6 | 3.95 | – | 7.07 | 1.4 | 29.7 | 51.5 | 10.5 | 28.3 | 17 | 14.9 | – | 18.6 | 1.5 | 35.8 | 18.7 | 2.28 | 5.99
6 | CN(C)c1nc(-c2cccs2)n2nc(-c3ccc(Cl)cc3)cc2n1 | 62.8 | 3.39 | 21.3 | – | > 100 | 2.73 | – | > 100 | > 100 | > 100 | > 100 | – | – | > 100 | > 100 | – | – | > 100 | > 100 | 3.58
7 | COc1ccc(C(=O)C(C(=O)CCC(=O)Nc2cccc(C(F)(F)F)c2)c2ccccc2)cc1 (centres undefined) | – | – | – | – | – | – | – | – | > 100 | > 100 | > 100 | > 100 | > 100 | > 100 | – | – | – | – | – | –
8 | CN1CCN(C)C1c1cccc(C2N(C)CCN2C)c1 | – | – | – | – | – | – | – | > 100 | > 100 | > 100 | > 100 | – | > 100 | > 100 | > 100 | – | – | – | – | –
9 | COc1ccc(C2C(N)=NCC2c2ccccn2)cc1 (centres undefined) | – | – | – | – | – | – | – | > 100 | > 100 | > 100 | > 100 | > 100 | > 100 | – | > 100 | – | – | – | – | –
10 | COc1ccc2c(c1)C=CC(C#N)N2C(=O)c1ccccc1 (centres undefined) | – | – | 0.488 | < 0.01 | < 0.01 | 4.16 | < 0.01 | – | > 100 | > 100 | > 100 | 4.68 | – | – | > 100 | < 0.01 | > 100 | > 67.5 | 0.0129 | < 0.01
11 | CC/C=C\C/C=C\C1CC(=O)NCCCNCCCCN1 (centres undefined) | – | – | – | – | – | – | – | 70.4 | > 100 | > 100 | > 100 | > 100 | – | > 100 | > 100 | – | – | – | – | –
12 | Cc1ncc([N+](=O)[O-])n1CCNC(=O)CCCCn1ccnc1[N+](=O)[O-] | – | – | – | – | – | – | – | – | > 100 | > 100 | > 100 | > 100 | > 100 | > 100 | – | – | > 100 | > 100 | – | –
13 | CC1CCCC(C(=O)/C(=C/c2cccc(Cl)c2)C(=O)C(=O)O)C1 (centres undefined) | – | – | – | – | – | – | – | – | 92.3 | 25.4 | > 100 | > 100 | 55.4 | 47.9 | – | – | – | – | – | –
14 | c1cc[c]([Sn]([S]c2cccc3cccnc23)([c]2ccccc2)[c]2ccccc2)cc1 | – | – | 0.0469 | 0.0158 | – | – | 0.042 | – | 0.241 | 0.096 | – | 0.277 | 0.0346 | – | 0.0304 | – | – | – | 0.0433 | 0.0159
15 | Clc1ccc(CNc2nc3ccccc3nc2-c2cccs2)c(Cl)c1 | – | – | – | – | – | – | – | > 100 | > 100 | > 100 | > 100 | – | > 100 | > 100 | – | – | – | – | – | –
16 | C=C(COC(C)=O)CC(/C=C(\C)CCC=C(C)C)OC(C)=O (centres undefined) | – | – | – | – | – | – | – | > 100 | > 100 | > 100 | > 100 | > 100 | > 100 | > 100 | > 100 | – | – | – | – | –
17 | CC(O)CN1C(=O)NC(Cc2ccccc2)C1=O (centres undefined) | – | – | – | – | – | – | – | > 100 | > 100 | > 100 | > 100 | – | – | > 100 | > 100 | – | – | – | – | –
18 | COc1ccc(-c2cc(-c3cc(Cl)ccc3Cl)nc3nc(=S)[nH]c(N)c23)cc1 | 54.9 | – | 57.7 | 45.1 | – | – | 18.2 | – | > 100 | 40.1 | – | 94.6 | > 100 | – | 44.4 | 24.8 | > 100 | > 100 | 23.1 | 14.2
19 | Cc1ccc(-c2nc(C(Cl)Cl)n3nc(-c4ccccc4)cc3n2)cc1 | > 100 | 0.298 | 1.06 | 0.222 | – | > 100 | > 100 | 0.896 | 4.82 | – | > 100 | > 100 | 0.586 | – | > 100 | – | – | > 100 | – | > 100
20 | c1ccc2c(c1)N=C(c1cccc3ccccc13)CC(c1cccc3ccccc13)S2 (centres undefined) | – | – | – | – | – | – | – | 16.5 | 20.4 | 11.2 | 24.6 | 22.1 | 9.68 | 3.56 | 11.4 | – | – | – | – | –
21 | CC(=O)OCCOCBr | – | – | – | – | – | – | – | > 100 | > 100 | – | > 100 | > 100 | > 100 | > 100 | > 100 | – | – | – | – | –
22 | NC1=NC(=O)C(CC(=O)Nc2ccc([N+](=O)[O-])cc2[N+](=O)[O-])S1 (centres undefined) | – | – | – | – | – | – | – | > 100 | > 100 | > 100 | > 100 | > 100 | > 100 | > 100 | > 100 | – | – | – | – | –
23 | CC(=O)c1c(C)n([O-])c2cc(C)c(C)cc2[n+]1=O | – | – | – | – | – | – | – | – | > 100 | > 100 | > 100 | > 100 | > 100 | > 100 | > 100 | – | – | – | – | –

— PubChem BioAssay (NCI)
